# Measurements: US20050244810A1, “Taste signaling in gastrointestinal cells” (priority 2003, published 2005)
# Tested on: G proteins on NCI-H716 cells
# Assay: Radiometric [35S]GTPγS binding assay with NCI-H716 cell membranes
# Format: biochemical, human
# Settings: for GTPγS binding to G proteins as compared to non-specific binding (NSB): NCI-H716 cell membrane fractions, 10 μl 50 mM compound in 50 μl assay, 2 hours at 25° C.; for effect of added transducin on the level of GTPγS binding to G proteins: transducin 4 μg/50 μl assay added together with compound (FIG. 4C, 5C)
# Experimental: [^35S] GTPγS binding assays were performed in triplicate in 96-well plates [see Northup et al., J. Biol. Chem., 257, 11416-23 (1982)]. To each well the following was added and allowed to incubate for 2 hours at 25° C.: […] of a 2× buffer (5 mM HEPES pH 7.8, 1 μM GTPγS, 4 μCi/ml [^35S]GTPγS); 10 μl 50 mM dextromethorphan or doxylamine; and 15 μl ([…]) NCI-H7-16 cell membranes or supernatant (supernatant from NCI-H716 cells spun at 900 g (S1), pellets from NCI-H716 cells spun at 900 g (P1), and pellets from NCI-H716 cells spun at 100,000 g (P2)). Where indicated, transducin was also added (4 μg/50 μl assay). The total assay volume per well was 50 μl.
# To separate the free [^35S] GTPγS from the [^35S] GTPγS that bound to G proteins, 40 μl of the mixture was filtered using a pre-wet Millipore Multiscreen Filtration opaque 96-well plate (0.45 μm mixed cellulose acetate, #MHABN4550). The samples were washed three times with 0.2 ml ice-cold wash buffer (0.5 M Tris-HCl, 0.04 M-magnesium chloride 6H20, 1 M sodium chloride) using a Whatman Polyfiltronics manifold under pressure from a Gast vacuum pump (#DOA-P104 AA) set to 10 PSI. The rubber manifold of the Multiscreen plates was removed and the filters were allowed to dry under warm lights and a fan for 15 minutes.
# The plates were then fitted with adapter plates (Packard #6005178) and 30 μl Microscint PS (#6013631) was added to each well. Next, the plates were heat sealed with Packard TopSeal-S sealing film (#6005161) using a Packard Micromate 496 heat sealer. Radioactivity bound to the filter plates was counted in a Packard Top Count NXT scintillation counter.
compound,measurement,setting,value
COc1ccc2c(c1)[C@]13CCCC[C@@H]1[C@H](C2)N(C)CC3 [dextromethorphan],amount of compound needed to saturate NCI-H716 cell membranes in GTPγS binding,2 μg of NCI-H716 cell membranes (FIG. 6B),10 mM
same,GTPγS binding to G proteins in the absence of transducin,"NCI-H716 cell fractions, no transducin added (FIG. 4A)",increased the binding to G proteins
same,GTPγS binding to G proteins as compared to non-specific binding (NSB),,increase this binding
same,effect of added transducin on the level of GTPγS binding to G proteins,,little effect
CN(C)CCOC(C)(c1ccccc1)c1ccccn1 (stereo not drawn) [doxylamine],GTPγS binding to G proteins as compared to non-specific binding (NSB),,increase this binding
same,effect of added transducin on the level of GTPγS binding to G proteins,,significantly increased the binding to G proteins
